Results published in patent US20170274001A1, “Compositions and Methods for Increasing Red Blood Cells” (Yale University, priority 2014, published 2017).
Entries after “also recorded” stand apart in the source; their conditions may differ.

Legend:
human RBCs = assay: Clearance of infused human RBCs from peripheral blood of RGSKI mice after blocking macrophage receptors (FIG. 3); assay type: in vivo; settings: RGSKI mice treated one hour before human RBC infusion, D-4F 10 mg/mouse, control PBS, peripheral blood by FACS
Protocol: D-4F blocks several scavenger receptors. RGSKI mice were treated with different antibodies or inhibitors to block various macrophage receptors. One hour after treatment, mice were infused with human RBCs and peripheral blood was collected at indicated time points. Anti-Dectin: 50 ug/mouse; Anti-CD169: 50 ug/mouse; Anti-CD169 clone 3D6: 100 ug/mice; Anti-Mannose receptor: 50 ug/mouse; D-4F: 10 mg/mouse; Asialofetuin: 10 mg/mouse; Control: PBS.
First, an experiment was conducted to examine the clearance of human red blood cells in mouse peripheral blood. Human and mouse red blood cells were pre-labeled with CFSE or violet dye, respectively, and then were transfused into RGSKI mice by retro-orbital injection. Peripheral blood was collected 5 minutes after blood infusion and the frequency of infused mouse or human RBCs was determined by FACS. It was observed that the frequency of infused human RBCs decreased more rapidly than mouse RBCs (FIG. 1B).
Experiments were then performed to evaluate the role of the scavenger receptor in RBC clearance. D-4F is an apolipoprotein A-I mimetic peptide and a general scavenger receptor inhibitor. D-4F is an 18 D-amino acid peptide (Ac-D-W-L-K-A-F-Y-D-K-V-A-E-K-L-K-E-A-F—NH2; SEQ ID NO: 2). […] Other pathways which might involve in the destruction of human RBCs in the periphery were also tested.

[1] = Navab et al., 2006; cited from earlier work
scavenger receptor B1 = target: T1, scavenger receptor B1 (Mus musculus, UniProt Q61009); assay: Clearance of infused human RBCs from peripheral blood of RGSKI mice after blocking scavenger receptor B1 (FIG. 4); assay type: in vivo; settings: BLT-1 80 mg/kg body weight one hour before human RBC infusion, control DMSO
T1 construct: endogenous in cells; host or cells: RGSKI mice (whole animal, in vivo)
T1 sequence (Q61009 1-509): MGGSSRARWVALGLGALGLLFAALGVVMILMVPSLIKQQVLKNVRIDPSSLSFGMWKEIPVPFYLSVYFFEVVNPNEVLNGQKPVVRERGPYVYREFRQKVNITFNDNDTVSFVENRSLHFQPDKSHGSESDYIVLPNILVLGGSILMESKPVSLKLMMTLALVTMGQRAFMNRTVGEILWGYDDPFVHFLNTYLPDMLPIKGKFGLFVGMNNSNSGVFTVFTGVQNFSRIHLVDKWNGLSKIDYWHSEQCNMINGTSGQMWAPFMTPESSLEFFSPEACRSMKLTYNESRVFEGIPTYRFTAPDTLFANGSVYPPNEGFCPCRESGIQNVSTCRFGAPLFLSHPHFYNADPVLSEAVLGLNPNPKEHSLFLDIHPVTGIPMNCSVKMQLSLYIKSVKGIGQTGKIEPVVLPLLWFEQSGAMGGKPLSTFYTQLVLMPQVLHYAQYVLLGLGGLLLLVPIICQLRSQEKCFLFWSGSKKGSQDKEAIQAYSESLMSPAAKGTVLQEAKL
Protocol: RGSKI mice were treated with scavenger receptor B1 named BLT-1 (80 mg/kg body weight). One hour after treatment, mice were infused with human RBCs and peripheral blood was collected at indicated time points. Control: DMSO.

Row | Compound | protection of infused human RBCs in the periphery (human RBCs) | protection of infused human RBCs in the periphery (human RBCs; listed as D4-F) | cholesterol efflux, inflammation and atherosclerosis [1] | percent of remaining RBCs in the periphery after human RBC infusion (scavenger receptor B1)
1 | Ac-D-W-L-K-A-F-Y-D-K-V-A-E-K-L-K-E-A-F—NH2 (DWLKAFYDKVAEKLKEAF; HELM PEPTIDE1{[ac].[dD].[dW].[dL].[dK].[dA].[dF].[dY].[dD].[dK].[dV].[dA].[dE].[dK].[dL].[dK].[dE].[dA].[dF].[am]}$$$$V2.0; SMILES CC(=O)N[C@H](CC(=O)O)C(=O)N[C@H](Cc1c[nH]c2ccccc12)C(=O)N[C@H](CC(C)C)C(=O)N[C@H](CCCCN)C(=O)N[C@H](C)C(=O)N[C@H](Cc1ccccc1)C(=O)N[C@H](Cc1ccc(O)cc1)C(=O)N[C@H](CC(=O)O)C(=O)N[C@H](CCCCN)C(=O)N[C@@H](C(=O)N[C@H](C)C(=O)N[C@H](CCC(=O)O)C(=O)N[C@H](CCCCN)C(=O)N[C@H](CC(C)C)C(=O)N[C@H](CCCCN)C(=O)N[C@H](CCC(=O)O)C(=O)N[C@H](C)C(=O)N[C@H](Cc1ccccc1)C(N)=O)C(C)C) [D-4F] | blocks in vivo destruction of human RBCs | protected infused human RBCs in the periphery | increase cholesterol efflux and reduce inflammation and atherosclerosis | 
2 | CCCCCCC1CCCC1=NNC(N)=S (stereo not shown) [BLT-1, 2-Hexyl-1-cyclopentanone thiosemicarbazone] |  |  |  | can protect infused human RBCs in the mouse system; also recorded: increases the percent of remaining RBCs in the periphery
